# System: DNFB-induced allergic contact dermatitis
# Test: DNFB-induced contact dermatitis in mice (allergic contact dermatitis model)
# Assay type: in vivo, mice (NMRI)
# Details: ascrolimus applied in the EDR system, 0.1, 0.3, 1.0%, ear homogenates, 24 hours
# From the text: Various models can be used in order to determine the effectiveness and bioavailability of active substances as a function of the topical medication used. A suitable pharmacological model within the scope of anti-inflammatory therapy on the skin is represented by the “Irritant contact dermatitis (ICD)” model in mice. In this model, the inflammatory components of eczema are imitated. This inflammatory aspect likewise plays a role in allergic contact dermatitis and atopic dermatitis with the participation of allergen-specific T cells intrinsic to the skin. Therefore, a T-cell-dependent model of allergic contact dermatitis (in reaction to dinitrofluorobenzene, DNFB) can be utilized. Acute and chronic allergic contact dermatitis (ACD) is characterized by a type-1 dominated cytokine profile. Therefore, the ACD model induced by dinitrofluorobenzene (DNFB) was used in order to assess in vivo the activity of the active substance “ascrolimus” (topical immunomodulator). After sensitizing by means of DNFB, edema was produced by subsequent application of the same contact allergens and therefore, a cutaneous infiltration of allergenic T-cells and granulocytes was triggered. The mice (NMRI) were sensitized with 0.5% DNFB on day 0 and day 1. On day 5, the mice were again treated with 0.3% DNFB. […]
substance,measurement,value
ascrolimus,"peroxidase activity as a measure for granulocyte infiltration (delta peroxidase, FIG. 5)",significant concentration-dependent inhibition
